Assay results taken from patent publication US7432107B2, “Cardiac hormones for assessing cardiovascular risk” (Roche Diagnostics Operations, Inc., priority 2005, dated 2008).

How the values were obtained:
[1] = cited from earlier work
[2] = design: species or system patients; conditions: human, in vivo, 24 weeks
Procedure: NT-proBNP was measured in baseline serum samples from 433 patients entering a prospective study, designed primarily to define the therapeutic effect of a novel metallo-proteinase inhibitor in osteoarthritis (OA). Cardiovascular adverse events (CV-AEs) were monitored and related to the concomitant use of cox-2 inhibitors or NSAIDs or prostaglandin metabolism influencing steroids. In a retrospective analysis the question was evaluated whether CV AEs in patients receiving anti-inflammatory drugs could have been predicted from elevated NT-proBNP values. […]
Permitted rescue anti-inflammatory drugs including cox-2 inhibitors and NSAIDs or steroids for this trial were aspirin, diclofenac sodium, diflunisal, etodolac, fenoprofen, ibuprofen, ketoprofen, naproxen, nabumetone, oxaprozin, piroxicam, sodium salicylate, choline magnesium salicylate, celecoxib, rofecoxib or tolmetin. […] Patients were not enquired actively for the occurrence of angina pectoris, signs or symptoms of congestive heart failure, or arterial hypertension, nor was the ECG routinely evaluated for the occurrence of new Q-waves or new bundle branch block. […]

[3] = 48 hours at room temperature or at 4° Celsius; cited from earlier work
[4] = cited from earlier work; remark: listed apart in the source

Which “additional cardiovascular incidents (myocardial infarction, stroke)” value ([1]; 25 mg compared with placebo, after 18 months of follow-up) does the source give for CS(=O)(=O)c1ccc(C2=C(c3ccccc3)C(=O)OC2)cc1 [Rofecoxib] here?
The value was 16 per 1,000 treated patients.

What about the blood pressure levels ([1]; 25 mg versus placebo, early post-observation phase) of the same molecule?
The blood pressure levels was “higher blood pressure levels”.

What about the “rise in the rate of serious thromboembolic incidents” value ([1]; APPROVE study) of the same molecule?
The value was 3.9 times.

With CC(=O)Nc1ccc(O)cc1 [acetaminophen] as the molecule, how does the “Hazard Ratio of covariate (takes drug at baseline), time to CV adverse events” value [2] read?
The value was 0.653.

Which “concentration loss on storage” value [3] does the source give for “BNP: active natriuretic hormone of 32 amino acids, cleaved from proBNP” here?
The value was “at least 20%”.

What about the in-vivo half-life ([4]; in vivo) of the same molecule?
Its in-vivo half-life is 0.333 h.

B1: NT-proBNP: N-terminal pro peptide of 76 amino acids, cleaved from proBNP; inactive counterpart of BNP (protein, UniProt P16860 27-102, looked up)
NT-proBNP: HPLGSPGSASDLETSGLQEQRNHLQGKLSELQVEQTSLEPLQESPRPTGVWKSREVATEGIRGHRKMVLYTLRAPR
modifications: NT-proBNP
For B1, which “in-vivo half-life, longer than that of BNP” value ([4]; difference to BNP) is on record?
Its value is 2 h.
